{"source": "the NIST ThermoML archive (doi:10.1021/je900596d)", "settings": "for mass density: Vibrating tube method", "note": "± gives the expanded uncertainty stated by the source."}
{"smiles": "FC(F)=C(F)C(F)(F)F", "note": "[hexafluoropropene]", "values": [{"measurement": "mass density", "setting": "343.18 K, 7163.7 kPa, Liquid", "value": "1166.5 ± 1.2", "unit": "kg/m3"}, {"measurement": "mass density", "setting": "343.18 K, 7207.1 kPa, Liquid", "value": "1167.25 ± 1.2", "unit": "kg/m3"}, {"measurement": "mass density", "setting": "343.18 K, 7249.5 kPa, Liquid", "value": "1168.08 ± 1.2", "unit": "kg/m3"}, {"measurement": "mass density", "setting": "343.18 K, 7293.3 kPa, Liquid", "value": "1168.78 ± 1.2", "unit": "kg/m3"}, {"measurement": "mass density", "setting": "343.18 K, 7354.7 kPa, Liquid", "value": "1169.81 ± 1.2", "unit": "kg/m3"}, {"measurement": "mass density", "setting": "343.18 K, 7477.5 kPa, Liquid", "value": "1171.63 ± 1.2", "unit": "kg/m3"}, {"measurement": "mass density", "setting": "343.18 K, 7539.3 kPa, Liquid", "value": "1172.69 ± 1.2", "unit": "kg/m3"}, {"measurement": "mass density", "setting": "343.18 K, 7580 kPa, Liquid", "value": "1173.37 ± 1.2", "unit": "kg/m3"}, {"measurement": "mass density", "setting": "343.18 K, 7621.6 kPa, Liquid", "value": "1174.18 ± 1.2", "unit": "kg/m3"}, {"measurement": "mass density", "setting": "343.18 K, 7663.4 kPa, Liquid", "value": "1174.54 ± 1.2", "unit": "kg/m3"}, {"measurement": "mass density", "setting": "343.18 K, 7709.7 kPa, Liquid", "value": "1175.39 ± 1.2", "unit": "kg/m3"}, {"measurement": "mass density", "setting": "343.18 K, 7753.6 kPa, Liquid", "value": "1176.17 ± 1.2", "unit": "kg/m3"}, {"measurement": "mass density", "setting": "343.18 K, 7797.5 kPa, Liquid", "value": "1176.76 ± 1.2", "unit": "kg/m3"}, {"measurement": "mass density", "setting": "343.18 K, 7837.6 kPa, Liquid", "value": "1177.31 ± 1.2", "unit": "kg/m3"}, {"measurement": "mass density", "setting": "343.18 K, 7898.4 kPa, Liquid", "value": "1178.24 ± 1.2", "unit": "kg/m3"}, {"measurement": "mass density", "setting": "343.18 K, 7941.1 kPa, Liquid", "value": "1178.97 ± 1.2", "unit": "kg/m3"}, {"measurement": "mass density", "setting": "343.18 K, 7984.5 kPa, Liquid", "value": "1179.58 ± 1.2", "unit": "kg/m3"}, {"measurement": "mass density", "setting": "343.18 K, 8043.1 kPa, Liquid", "value": "1180.22 ± 1.2", "unit": "kg/m3"}, {"measurement": "mass density", "setting": "343.18 K, 8085.6 kPa, Liquid", "value": "1180.85 ± 1.2", "unit": "kg/m3"}, {"measurement": "mass density", "setting": "343.18 K, 8131.1 kPa, Liquid", "value": "1181.65 ± 1.2", "unit": "kg/m3"}, {"measurement": "mass density", "setting": "343.18 K, 8209.9 kPa, Liquid", "value": "1183.02 ± 1.2", "unit": "kg/m3"}, {"measurement": "mass density", "setting": "343.18 K, 8291.5 kPa, Liquid", "value": "1184.04 ± 1.2", "unit": "kg/m3"}, {"measurement": "mass density", "setting": "343.18 K, 8335.5 kPa, Liquid", "value": "1184.74 ± 1.2", "unit": "kg/m3"}, {"measurement": "mass density", "setting": "343.18 K, 8378 kPa, Liquid", "value": "1185.42 ± 1.2", "unit": "kg/m3"}, {"measurement": "mass density", "setting": "343.18 K, 8419.6 kPa, Liquid", "value": "1185.91 ± 1.2", "unit": "kg/m3"}, {"measurement": "mass density", "setting": "343.18 K, 8464.8 kPa, Liquid", "value": "1186.51 ± 1.2", "unit": "kg/m3"}, {"measurement": "mass density", "setting": "343.18 K, 8525.6 kPa, Liquid", "value": "1187.33 ± 1.2", "unit": "kg/m3"}, {"measurement": "mass density", "setting": "343.18 K, 8587 kPa, Liquid", "value": "1188.25 ± 1.2", "unit": "kg/m3"}, {"measurement": "mass density", "setting": "343.18 K, 8628.5 kPa, Liquid", "value": "1188.86 ± 1.2", "unit": "kg/m3"}, {"measurement": "mass density", "setting": "343.18 K, 8670.7 kPa, Liquid", "value": "1189.47 ± 1.2", "unit": "kg/m3"}, {"measurement": "mass density", "setting": "343.18 K, 8714.6 kPa, Liquid", "value": "1189.91 ± 1.2", "unit": "kg/m3"}, {"measurement": "mass density", "setting": "343.18 K, 8776.2 kPa, Liquid", "value": "1190.93 ± 1.2", "unit": "kg/m3"}, {"measurement": "mass density", "setting": "343.18 K, 8818.3 kPa, Liquid", "value": "1191.58 ± 1.2", "unit": "kg/m3"}, {"measurement": "mass density", "setting": "343.18 K, 8881.2 kPa, Liquid", "value": "1192.4 ± 1.2", "unit": "kg/m3"}, {"measurement": "mass density", "setting": "343.18 K, 8941.7 kPa, Liquid", "value": "1193.53 ± 1.2", "unit": "kg/m3"}, {"measurement": "mass density", "setting": "343.18 K, 9000.5 kPa, Liquid", "value": "1194.02 ± 1.2", "unit": "kg/m3"}, {"measurement": "mass density", "setting": "343.18 K, 9064 kPa, Liquid", "value": "1194.66 ± 1.2", "unit": "kg/m3"}, {"measurement": "mass density", "setting": "343.18 K, 9123.4 kPa, Liquid", "value": "1195.43 ± 1.2", "unit": "kg/m3"}, {"measurement": "mass density", "setting": "343.18 K, 9184.1 kPa, Liquid", "value": "1196.23 ± 1.2", "unit": "kg/m3"}, {"measurement": "mass density", "setting": "343.18 K, 9262 kPa, Liquid", "value": "1197.29 ± 1.2", "unit": "kg/m3"}, {"measurement": "mass density", "setting": "343.18 K, 9304.6 kPa, Liquid", "value": "1197.74 ± 1.2", "unit": "kg/m3"}, {"measurement": "mass density", "setting": "343.18 K, 9350.1 kPa, Liquid", "value": "1198.56 ± 1.2", "unit": "kg/m3"}, {"measurement": "mass density", "setting": "343.18 K, 9408.2 kPa, Liquid", "value": "1199.15 ± 1.2", "unit": "kg/m3"}, {"measurement": "mass density", "setting": "343.18 K, 9449.8 kPa, Liquid", "value": "1199.74 ± 1.2", "unit": "kg/m3"}, {"measurement": "mass density", "setting": "343.18 K, 9509.5 kPa, Liquid", "value": "1200.56 ± 1.2", "unit": "kg/m3"}, {"measurement": "mass density", "setting": "343.18 K, 9567.5 kPa, Liquid", "value": "1201.28 ± 1.2", "unit": "kg/m3"}, {"measurement": "mass density", "setting": "343.18 K, 9607.9 kPa, Liquid", "value": "1202.1 ± 1.2", "unit": "kg/m3"}, {"measurement": "mass density", "setting": "343.18 K, 9667.5 kPa, Liquid", "value": "1202.79 ± 1.2", "unit": "kg/m3"}, {"measurement": "mass density", "setting": "343.18 K, 9708 kPa, Liquid", "value": "1203.31 ± 1.3", "unit": "kg/m3"}, {"measurement": "mass density", "setting": "343.18 K, 9749.9 kPa, Liquid", "value": "1203.76 ± 1.2", "unit": "kg/m3"}, {"measurement": "mass density", "setting": "343.18 K, 9796.9 kPa, Liquid", "value": "1204.53 ± 1.2", "unit": "kg/m3"}, {"measurement": "mass density", "setting": "343.18 K, 9839 kPa, Liquid", "value": "1205.06 ± 1.3", "unit": "kg/m3"}, {"measurement": "mass density", "setting": "343.18 K, 9920.9 kPa, Liquid", "value": "1205.9 ± 1.2", "unit": "kg/m3"}, {"measurement": "mass density", "setting": "343.18 K, 9962.6 kPa, Liquid", "value": "1206.45 ± 1.3", "unit": "kg/m3"}, {"measurement": "vapor or sublimation pressure", "setting": "343.21 K, Liquid, Closed cell (Static) method", "value": "2243.8 ± 4", "unit": "kPa"}, {"measurement": "mass density", "setting": "343.26 K, 3.2 kPa, Fluid (supercritical or subcritical phases)", "value": "0.22 ± 0.03", "unit": "kg/m3"}, {"measurement": "mass density", "setting": "343.26 K, 5.9 kPa, Fluid (supercritical or subcritical phases)", "value": "0.35 ± 0.03", "unit": "kg/m3"}, {"measurement": "mass density", "setting": "343.26 K, 8.6 kPa, Fluid (supercritical or subcritical phases)", "value": "0.55 ± 0.03", "unit": "kg/m3"}, {"measurement": "mass density", "setting": "343.26 K, 10.3 kPa, Fluid (supercritical or subcritical phases)", "value": "0.63 ± 0.03", "unit": "kg/m3"}, {"measurement": "mass density", "setting": "343.26 K, 12.1 kPa, Fluid (supercritical or subcritical phases)", "value": "0.73 ± 0.03", "unit": "kg/m3"}, {"measurement": "mass density", "setting": "343.26 K, 14.8 kPa, Fluid (supercritical or subcritical phases)", "value": "0.81 ± 0.03", "unit": "kg/m3"}, {"measurement": "mass density", "setting": "343.26 K, 16.4 kPa, Fluid (supercritical or subcritical phases)", "value": "1 ± 0.03", "unit": "kg/m3"}, {"measurement": "mass density", "setting": "343.26 K, 19.5 kPa, Fluid (supercritical or subcritical phases)", "value": "1.07 ± 0.03", "unit": "kg/m3"}, {"measurement": "mass density", "setting": "343.26 K, 22.4 kPa, Fluid (supercritical or subcritical phases)", "value": "1.29 ± 0.03", "unit": "kg/m3"}, {"measurement": "mass density", "setting": "343.26 K, 24.3 kPa, Fluid (supercritical or subcritical phases)", "value": "1.34 ± 0.03", "unit": "kg/m3"}, {"measurement": "mass density", "setting": "343.26 K, 25.9 kPa, Fluid (supercritical or subcritical phases)", "value": "1.39 ± 0.03", "unit": "kg/m3"}, {"measurement": "mass density", "setting": "343.26 K, 29 kPa, Fluid (supercritical or subcritical phases)", "value": "1.68 ± 0.03", "unit": "kg/m3"}]}
